The values that follow come from patent publication US20250197372A1 (priority 2020, published 2025).

The target of assay [1] is T1, recombinant alpha-glucosidase I (human full-length glucosidase I, Glu 1) (Homo sapiens, UniProt Q13724).
T1 construct: 6-His (C); made in house; host or cells: HEK-293T cells transduced with BacMam virus (virus raised in Sf9)
T1 sequence (Q13724 1-837): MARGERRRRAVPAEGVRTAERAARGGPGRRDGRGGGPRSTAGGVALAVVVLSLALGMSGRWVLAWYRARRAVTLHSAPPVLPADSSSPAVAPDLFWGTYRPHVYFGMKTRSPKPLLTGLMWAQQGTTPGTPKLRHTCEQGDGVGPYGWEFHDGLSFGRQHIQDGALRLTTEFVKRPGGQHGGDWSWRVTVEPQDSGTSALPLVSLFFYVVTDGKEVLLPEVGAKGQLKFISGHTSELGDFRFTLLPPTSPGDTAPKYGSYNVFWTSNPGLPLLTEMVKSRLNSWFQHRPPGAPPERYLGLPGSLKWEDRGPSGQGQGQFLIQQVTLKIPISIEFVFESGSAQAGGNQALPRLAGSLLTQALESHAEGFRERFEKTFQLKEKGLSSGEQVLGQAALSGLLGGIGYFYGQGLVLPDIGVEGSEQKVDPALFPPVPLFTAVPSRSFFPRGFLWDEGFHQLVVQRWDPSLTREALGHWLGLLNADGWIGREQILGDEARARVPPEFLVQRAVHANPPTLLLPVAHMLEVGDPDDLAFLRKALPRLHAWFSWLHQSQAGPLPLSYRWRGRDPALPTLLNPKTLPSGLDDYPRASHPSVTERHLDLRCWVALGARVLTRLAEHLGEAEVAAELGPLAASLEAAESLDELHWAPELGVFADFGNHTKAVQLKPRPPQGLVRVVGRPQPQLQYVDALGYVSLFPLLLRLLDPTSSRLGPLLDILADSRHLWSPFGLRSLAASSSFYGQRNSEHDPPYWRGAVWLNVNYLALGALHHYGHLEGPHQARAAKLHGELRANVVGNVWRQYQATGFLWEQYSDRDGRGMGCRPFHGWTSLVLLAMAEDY
Briefly: Alpha-glucosidase I assay (Amplex Red glucose detection, synthetic trisaccharide substrate). In kind it is biochemical. The conditions noted are these: Glucosidase 1; read-out: Glu 1 IC50. Put shortly:
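Human full-length glucosidase I, His-tagged, […] and Ni-purified. Enzyme preincubated with compound dilutions 60 min at 37° C, then synthetic trisaccharide substrate 90 min at 37° C; stopped with 1.5M Tris pH 8.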

In assay [2] the target is rat maltase (partially purified alpha-glucosidase from intestinal rat powder). The assay can be described thus: Intestinal alpha-glucosidase assay, maltose substrate (Glucose GO Kit). The assay is classed as biochemical. The method in brief:
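Rat intestinal enzyme prep + test cpd dilutions, 60 min 37 °C; add maltose (maltase) or sucrose (sucrase), 30 min 37 °C; stop 90 °C 5 min. Glucose readout (glucose oxidase kit). IC50 from 4-PL fit of % inhibition vs conc.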

For `N#Cc1cc(-c2ncccn2)ccc1NCCCCCCN1C[C@H](O)[C@@H](O)[C@H](O)[C@H]1CO` [Compound 1256, 5-(pyrimidin-2-yl)-2-({6-[(2R,3R,4R,5S)-3,4,5-trihydroxy-2-(hydroxymethyl)piperidin-1-yl]hexyl}amino)benzonitrile], the IC50 in assay [1] stood at 90 nM; in assay [2], 10 nM.
Turning to `N#Cc1ccc(NCCCCCCN2C[C@H](O)[C@@H](O)[C@H](O)[C@H]2CO)c([N+](=O)[O-])c1` [Compound 1304, 3-nitro-4-({6-[(2R,3R,4R,5S)-3,4,5-trihydroxy-2-(hydroxymethyl)piperidin-1-yl]hexyl}amino)benzonitrile], the figures for the concentration for half-maximal inhibition (IC50) in assay [1] and in assay [2] were 178 nM and 17 nM, respectively.
Consider `Cc1cc(-c2ncccn2)ccc1NCCCCCCN1C[C@H](O)[C@@H](O)[C@H](O)[C@H]1CO` [Compound 1233, (2R,3R,4R,5S)-2-(hydroxymethyl)-1-(6-{[2-methyl-4-(pyrimidin-2-yl)phenyl]amino}hexyl)piperidine-3,4,5-triol], for which the IC50 stood at 123 nM in assay [1] and 32 nM in assay [2].
Regarding `CN(Cc1cccc(CN2C[C@H](O)[C@@H](O)[C@H](O)[C@H]2CO)c1)c1ccc(CN2CCCO2)cc1[N+](=O)[O-]` [Compound 1020], the IC50 in assay [1] is 118 nM; in assay [2], 44 nM.

A word on the IC50: it is the concentration that gives 50% inhibition.
